Here are results for three compounds from patent publication US20100280031A1, “LIPID FORMULATION OF APOPTOSIS PROMOTER” (priority 2009, published 2010).

Read-outs that look alike come from different tables or passages of the source.

In general, AUC(0-inf) refers to total exposure, with the tail of the curve extrapolated. Higher therefore signals high exposure. What is called bioavailability is the share of a dose that reaches the circulation, judged against a reference dose that is usually intravenous.

The nature of data set [1]: PK study of ABT-263 bis-HCl liquid-filled capsules in non-fasted dogs. In kind it is in vivo, beagle dogs.
A short description of data set [2]: Phase 1 clinical PK study of ABT-263 bis-HCl formulation (Formulation C). Particulars: humans. In kind it is in vivo, human. On the procedure: The formulation was prepared immediately or shortly (not more than about one month) prior to oral administration.
The study had several cycles, depending on the subjects' response to the drug.
The dose doubled until one grade 3 or two grade 2 toxicities occurred, after which dose escalated in 25-40% increments. Platelet levels were monitored and reviewed to inform dose escalation decisions.
Blood and plasma samples were protected from direct sunlight during collection, processing and storage. The timing of blood collections took priority over other scheduled study activities except for dosing. The order of blood collections was maintained to the minute such that the time intervals relative to the preceding dosing were the same for all subjects.
Blood samples were collected by venipuncture into 3-ml evacuated potassium EDTA-containing collection tubes during Cycle 1 Day −3, prior to dosing (0 hour) and at 0.5, 1, 2, 3, 4, 6, 8, 24, 48 and 72 (Day 1, predose sample) hours after dosing; Day 1, at 0.5, 1, 2, 3, 4, 6, 8 and 24 (Day 2, pre-dose sample) hours after dosing; Day 14, prior to dosing (0 hour) and at 0.5, 1, 2, 3, 4, 6 and 8 hours after dosing. Additional blood samples were collected at 0 hour (pre-dose) on Day 14, Cycle 2 through Cycle 6. Sufficient blood was collected to provide approximately 1 ml plasma from each sample. A total of 27 blood samples (approximately 81 ml) were collected per subject for pharmacokinetic analysis during Cycle 1 and one additional blood sample per subject per cycle, up to Cycle 6.

A short description of data set [3]: PK study of ABT-263 free base formulations in rats. It is filed as in vivo, Sprague-Dawley rats. Particulars: fasted rats, 5 mg/kg oral. On the procedure: (§1) Serial heparinized blood samples were obtained from a tail vein of each animal prior to dosing and 0.25, 0.5, 1, 1.5, 2, 3, 4, 6, 8 and 24 hours after administration.
Data set [4] can be described thus: PK study of ABT-263 free base formulations in fasted dogs. Particulars: oral. It is filed as in vivo, beagle dogs. The procedure:
Serial heparinized blood samples were obtained from a jugular vein of each animal prior to dosing and 0.25, 0.5, 1, 1.5, 2, 3, 4, 6, 9, 12, 15 and 24 hours after administration. […] The bioavailability was calculated as the dose-normalized AUC0-∞ from oral dosing divided by the corresponding value derived from i.v. (intravenous) dosing, administered as a slow bolus to a cephalic vein.

The nature of data set [5]: food-effect PK study of ABT-263 free base formulation in dogs. The settings on record: 10 mg/kg oral, 20 mg/ml, carrier PEG 400/Phosal 50 PG/DMSO (60:30:10). It is filed as in vivo, beagle dogs.
The next data set can be described thus: solubility in water. Particulars: pH 2. The text has this:
It will be recognized that aqueous solubility of many compounds is pH-dependent; in the case of such compounds the solubility of interest herein is at a physiologically relevant pH, for example a pH of about 1 to about 8.

A short description of data set [6]: PK study of ABT-263 free base liquid-filled capsules in non-fasted dogs. It is filed as in vivo, beagle dogs.
A short description of data set [7]: PK study of ABT-737 formulations in rats. It is filed as in vivo, Sprague-Dawley rats. Particulars: for AUC(0-inf) / bioavailability / Cmax: rats, 5 mg/kg oral; for bioavailability: read-out: Bioavailability (F %). The procedure:
as §1
Analysis was performed on a Sciex API3000™ biomolecular mass analyzer with a heated nebulizer interface. ABT-737 and internal standard peak areas were determined using Sciex MacQuan™ software. The plasma drug concentration of each sample was calculated by least squares linear regression analysis (non-weighted) of the peak area ratio (parent/internal standard) of the spiked plasma standards versus concentration. The plasma concentration data were submitted to multi-exponential curve fitting using WinNonlin 3 (Pharsight).
The area under the plasma concentration-time curve from 0 to t hours (time of the last measured plasma concentration) after dosing (AUC0-t) was calculated using the linear trapezoidal rule for the plasma concentration-time profiles. The residual area extrapolated to infinity, determined as the final measured plasma concentration (Ct) divided by the terminal elimination rate constant (β), was added to AUC0-t to produce the total area under the curve (AUC0-∞). The bioavailability was calculated as the dose-normalized AUC0-∞ from oral dosing divided by the corresponding value derived from i.v. (intravenous) dosing, administered as a slow bolus to a jugular vein under light ether anesthetic.

The mark [8] stands for this setting: carrier Labrasol/Tween 20 (70:30), 50 mg/dog.
Where [9] appears, read: carrier Phosal 53 MCT, 50 mg/dog.
Where [10] appears, read: carrier Phosal 53 MCT/Labrasol (70:30), 50 mg/dog.
[11] abbreviates: carrier Phosal 53 MCT/Tween 20 (80:20), 50 mg/dog.
Setting [12] is: 315 mg/day, Day 14, non-fasting.
Where [13] appears, read: carrier PEG 400/DMSO (90:10), 2 mg/ml.
Setting [14] is: carrier PEG 400/Phosal 50 PG/DMSO (60:30:10), 5 mg/ml.
[15] abbreviates: carrier PEG 400/DMSO (90:10), 2.5 mg/kg, 5 mg/ml.
Setting [16] is: carrier PEG 400/DMSO (90:10), 5 mg/kg, 10 mg/ml.
Setting [17] is: carrier PEG 400/DMSO (90:10), 10 mg/kg, 20 mg/ml.
[18] abbreviates: carrier PEG 400/Phosal 50 PG/DMSO (60:30:10), 5 mg/kg, 10 mg/ml.
The mark [19] stands for this setting: carrier PEG 400/Phosal 50 PG/DMSO (60:30:10), 10 mg/kg, 20 mg/ml.
Setting [20] is: liquid-filled capsules, carrier Capmul PG-8, 50 mg/dog.
The mark [21] stands for this setting: liquid-filled capsules, carrier Capmul PG-8/Cremophor EL (90:10), 50 mg/dog.
The mark [22] stands for this setting: liquid-filled capsules, carrier Phosal 53 MCT/PEG 400 (70:30), 50 mg/dog.
Where [23] appears, read: liquid-filled capsules, carrier oleic acid/PEG 400/Cremophor EL (80:10:10), 50 mg/dog.
Setting [24] is: oral, carrier PEG 400/Phosal 50 PG/DMSO (60:30:10), 20 mg/kg.
[25] abbreviates: Sprague-Dawley, rat, plasma, po, 5 mg/kg, carrier D5W/PG/DMSO/Tween (70:20:5:5), 5 mg/ml.
Where [26] appears, read: Sprague-Dawley, rat, plasma, po, 5 mg/kg, carrier Imwitor 380 (unneutralized)/ethanol (95:5), 10 mg/ml.
Where [27] appears, read: Sprague-Dawley, rat, plasma, po, 5 mg/kg, carrier Phosal 50 PG/ethanol (90:10), 50 mg/ml.
The mark [28] stands for this setting: Sprague-Dawley, rat, plasma, po, 5 mg/kg, carrier Phosal 53 MCT/ethanol (90:10), 10 mg/ml.

Turning to `CC1(C)CCC(c2ccc(Cl)cc2)=C(CN2CCN(c3ccc(C(=O)NS(=O)(=O)c4ccc(N[C@H](CCN5CCOCC5)CSc5ccccc5)c(S(=O)(=O)C(F)(F)F)c4)cc3)CC2)C1.Cl.Cl` [ABT-263 bis-HCl], the “Bioavailability (F %)” value in data set [1] (carrier Labrasol, […]) came to 29.4%; in data set [1] (setting [8]), 39.0%; in data set [1] (setting [9]), 49.0%; in data set [1] (setting [10]) it was 38.5%; in data set [1] (carrier Phosal 53 MCT/PEG 400 (70:30), […]), 40.8%; in data set [1] (setting [11]) it was 48.5%. In addition, the “AUC0-∞” value in data set [1] (setting [8]) is 84800 ng·h/mL; in data set [1] (setting [9]) it was 89700 ng·h/mL; in data set [1] (setting [10]) it was 94300 ng·h/mL; in data set [1] (setting [11]) it was 89900 ng·h/mL. Besides, the Cmax in data set [1] (setting [8]) is 10310 ng/mL; in data set [1] (setting [9]), 9250 ng/mL; in data set [1] (setting [10]), 15830 ng/mL; in data set [1] (setting [11]), 14020 ng/mL.
Take `CC1(C)CCC(c2ccc(Cl)cc2)=C(CN2CCN(c3ccc(C(=O)NS(=O)(=O)c4ccc(N[C@H](CCN5CCOCC5)CSc5ccccc5)c(S(=O)(=O)C(F)(F)F)c4)cc3)CC2)C1` [ABT-263]: in data set [2] (setting [12]), the “plasma concentration at steady state (peak)” value is “about 5.5 μg/ml”. In addition, in data set [2] (setting [12]), the “plasma concentration at steady state (trough)” value was “about 3 μg/ml”. In addition, the Tmax entry in data set [2] (single 315 mg dose, both fasting and non-fasting (FIG. 2)) is “around 8 hours”. In addition, the “AUC0-∞” value in data set [3] (setting [13]) worked out at 7530 ng·h/mL; in data set [3] (setting [14]), 9960 ng·h/mL; in data set [4] (setting [15]) it was 27100 ng·h/mL; in data set [4] (setting [16]), 39800 ng·h/mL; in data set [4] (setting [17]) it was 58300 ng·h/mL; in data set [4] (setting [18]), 115100 ng·h/mL. The “AUC0-∞” value came to 173900 ng·h/mL in data set [4] (setting [19]); 156100 ng·h/mL in data set [5] (fasted dogs); 255600 ng·h/mL in data set [5] (non-fasted dogs); 59100 ng·h/mL in data set [6] (setting [20]); 63300 ng·h/mL in data set [6] (setting [21]); 119800 ng·h/mL in data set [6] (setting [22]). In addition, the “AUC0-∞” value in data set [6] (setting [23]) worked out at 43800 ng·h/mL; in data set [6] (setting [24]) it was 537200 ng·h/mL. Moreover, the “Bioavailability (F %)” value in data set [3] (setting [13]) is 21.6%; in data set [3] (setting [14]), 28.5%; in data set [4] (setting [16]), 16.5%; in data set [4] (setting [17]), 12.1%; in data set [4] (setting [19]) it was 36.0%; in data set [5] (fasted dogs, 10 mg/kg) it was 32.3%. Besides, the “Bioavailability (F %)” value came out at 52.9% in data set [5] (non-fasted dogs); 24.9% in data set [6] (setting [20]); 27.7% in data set [6] (setting [21]); 53.0% in data set [6] (setting [22]); 20.5% in data set [6] (setting [23]); 51.3% in data set [6] (setting [24]). The Cmax in data set [3] (setting [13]) was found to be 670 ng/mL; in data set [3] (setting [14]), 1050 ng/mL; in data set [4] (setting [15]), 3670 ng/mL; in data set [4] (setting [16]) it was 6750 ng/mL; in data set [4] (setting [17]), 8460 ng/mL; in data set [4] (setting [18]), 13220 ng/mL. Besides, the Cmax is 21600 ng/mL in data set [4] (setting [19]); 20300 ng/mL in data set [5] (fasted dogs); 23500 ng/mL in data set [5] (non-fasted dogs); 6400 ng/mL in data set [6] (setting [20]); 10610 ng/mL in data set [6] (setting [21]); 21500 ng/mL in data set [6] (setting [22]). Besides, the Cmax came out at 6840 ng/mL in data set [6] (setting [23]) and 47300 ng/mL in data set [6] (setting [24]). The solubility in water entry in “solubility in water” is “less than 4 μg/ml”.
As to `CN(C)CC[C@H](CSc1ccccc1)Nc1ccc(S(=O)(=O)NC(=O)c2ccc(N3CCN(Cc4ccccc4-c4ccc(Cl)cc4)CC3)cc2)cc1[N+](=O)[O-]` [ABT-737, N-(4-(4-((4′-chloro-(1,1′-biphenyl)-2-yl)methyl)piperazin-1-yl)benzoyl)-4-(((1R)-3-(dimethylamino)-1-((phenylsulfanyl)methyl)propyl)amino)-3-nitrobenzene-sulfonamide], the AUC(0-inf) in data set [7] (setting [25]) was found to be 230 ng·h/mL; in data set [7] (setting [26]) it was 150 ng·h/mL; in data set [7] (setting [27]) it was 60 ng·h/mL; in data set [7] (setting [28]) it was 130 ng·h/mL. Moreover, the bioavailability in data set [7] (setting [25]) came out at 5.9%; in data set [7] (setting [26]), 3.9%; in data set [7] (setting [27]), 1.5%; in data set [7] (setting [28]), 3.3%. Further, the Cmax in data set [7] (Sprague-Dawley, rat, plasma, po, 5 mg/kg, carrier Imwitor 380 (unneutralized)/ethanol (95:5), 10 mg/ml, read-out: Cmax) was determined as 29 ng/mL; in data set [7] (Sprague-Dawley, rat, plasma, po, 5 mg/kg, carrier Phosal 50 PG/ethanol (90:10), 50 mg/ml, read-out: Cmax), 24 ng/mL; in data set [7] (Sprague-Dawley, rat, plasma, po, 5 mg/kg, carrier Phosal 53 MCT/ethanol (90:10), 10 mg/ml, read-out: Cmax), 28 ng/mL; in data set [7] (carrier D5W/PG/DMSO/Tween (70:20:5:5), 5 mg/ml), 32 ng/mL. In addition, in data set [7] (regardless of the carrier), the Bioavailability in rats result is on record as “extremely low”.
